Laboratory results: ChEMBL document CHEMBL5357052, “Diastereomers of Steroidal Alkaloids with Cytotoxic Activities against Non-Small-Cell Lung Cancer from the Bulbs of Fritillaria sinica” (2024)

Tests used:
Format in all cases: functional
H9c2 = test: Antioxidant activity against H2O2 treated rat H9c2 cells assessed as inhibition of MDA level at 10 uM incubated for 4 hrs followed by H2O2 administration by colorimetric assay relative to control; parameters: scale not given: the % may be the effect or the level left
RAW264.7 = test: Antiinflammatory activity in mouse RAW264.7 cells assessed as inhibition of LPS induced NO production at 10 uM preincubated for 24 hrs followed by LPS stimulation and measured after 24 hrs by Griess assay relative to control; parameters: scale not given: the % may be the effect or the level left; conditions: time 48 hrs
NCI-H460 = test: Cytotoxicity against human NCI-H460 cells assessed as reduction in cell growth incubated for 48 hrs by CCK8 method
A549 = test: Cytotoxicity against human A549 cells assessed as reduction in cell growth incubated for 48 hrs by CCK8 method

With `C[C@H]1CC[C@H]2[C@H](C)[C@H]3CC[C@@H]4[C@@H](C[C@H]5[C@H]4C[C@@H](O)[C@H]4C[C@@H](O)CC[C@@]45C)[C@@H]3CN2C1` the Activity (H9c2) was 38%, the Activity (RAW264.7) was 8.3% and the CC50 (NCI-H460) was 10 µM. It also gave a CC50 (A549) of 19 µM.
`C[C@H]1CC[C@H]2[C@H](C)[C@@H]3CC[C@@H]4[C@@H](C[C@H]5[C@H]4CC(=O)[C@H]4C[C@@H](O)CC[C@@]45C)[C@@H]3CN2C1` showed an Activity (H9c2) of 39%, an Activity (RAW264.7) of 23% and a CC50 (NCI-H460) of 46 µM. It also gave a CC50 (A549) of 30 µM.
`C[C@H]1CC[C@H]2[C@H](C)[C@H]3CC[C@@H]4[C@@H](C[C@H]5[C@H]4CC(=O)[C@H]4C[C@@H](O)CC[C@@]45C)[C@@H]3CN2C1` was tested, and the Activity (H9c2) was 34%, the Activity (RAW264.7) was 42% and the CC50 (NCI-H460) was 37 µM. The CC50 (A549) was 22 µM.
Work on `C[C@@H]1CC[C@H]2[C@H](C)[C@H]3CC[C@@H]4[C@@H](C[C@H]5[C@H]4C[C@H](O)[C@H]4C[C@@H](O)CC[C@@]45C)[C@H]3C[N+]2([O-])C1` (stereo not given in full) yielded an Activity (H9c2) of 15%, an Activity (RAW264.7) of 40% and a CC50 (NCI-H460) of 45 µM. For the same compound, the CC50 (A549) was 38 µM.
Work on `C[C@@H]1CC[C@H]2[C@H](C)[C@H]3CC[C@@H]4[C@@H](C[C@H]5[C@H]4CC(=O)[C@H]4C[C@@H](O)CC[C@@]45C)[C@H]3C[N+]2([O-])C1` (stereo not given in full) yielded an Activity (H9c2) of 39%, an Activity (RAW264.7) of 1.4% and a CC50 (NCI-H460) of 11 µM. It also gave a CC50 (A549) of 9.5 µM.
For `C[C@H]1CC[C@H]2[C@H](C)[C@H]3CC[C@@H]4[C@@H](C[C@H]5[C@H]4C[C@H](O)[C@H]4C[C@@H](O)CC[C@@]45C)[C@@H]3CN2C1`, the Activity (H9c2) was 29%, the Activity (RAW264.7) was 57% and the CC50 (NCI-H460) was 20 µM. The CC50 (A549) was 11 µM.
`C[C@@H]1CC[C@H]2[C@H](C)[C@H]3CC[C@@H]4[C@@H](C[C@H]5[C@H]4C[C@H](O)[C@H]4C[C@@H](O)CC[C@@]45C)[C@@H]3C[N+]2([O-])C1` (stereo not given in full) gave an Activity (H9c2) of 48%, an Activity (RAW264.7) of 24% and a CC50 (NCI-H460) of 45 µM. For the same compound, the CC50 (A549) was 35 µM.
`C[C@@H]1CC[C@H]2[C@H](C)[C@H]3CC[C@@H]4[C@@H](C[C@H]5[C@H]4C[C@H](O)[C@H]4C[C@@H](O)CC[C@@]45C)[C@@H]3CN2C1` was tested, and the Activity (H9c2) was 15%, the Activity (RAW264.7) was 7.9% and the CC50 (NCI-H460) was 40 µM. The CC50 (A549) was 23 µM.
`C[C@@H]1CC[C@H]2[C@H](C)[C@H]3CC[C@@H]4[C@@H](C[C@H]5[C@H]4CC(=O)[C@H]4C[C@@H](O[C@@H]6O[C@H](CO)[C@@H](O)[C@H](O)[C@H]6O)CC[C@@]45C)[C@H]3CN2C1` was tested, and the Activity (H9c2) was 53%, the Activity (RAW264.7) was 7.8% and the CC50 (NCI-H460) was 59 µM. For the same compound, the CC50 (A549) was 19 µM.
With `C[C@@H]1CC[C@H]2[C@H](C)[C@@H]3CC[C@@H]4[C@@H](C[C@H]5[C@H]4CC(=O)[C@H]4C[C@@H](O)CC[C@@]45C)[C@@H]3CN2C1` the Activity (H9c2) was 21%, the Activity (RAW264.7) was 47% and the CC50 (NCI-H460) was 37 µM. It also gave a CC50 (A549) of 31 µM.
Compound `C[C@H]1CC[C@H]2[C@H](C)c3ccc4c(c3CN2C1)C[C@H]1[C@H]4C[C@H](O)[C@H]2C[C@@H](O)CC[C@@]21C` has an Activity (H9c2) of 43%, an Activity (RAW264.7) of 2.1% and a CC50 (NCI-H460) of 65 µM. The CC50 (A549) was 34 µM.
`C[C@@H]1CC[C@H]2[C@H](C)[C@H]3CC[C@@H]4[C@@H](C[C@H]5[C@H]4CC(=O)[C@H]4C[C@@H](O)CC[C@@]45C)[C@@H]3CN2C1` gave an Activity (H9c2) of 20%, an Activity (RAW264.7) of -1.3% and a CC50 (NCI-H460) of 49 µM. It also gave a CC50 (A549) of 29 µM.
With `CC1=C2C[C@H]3[C@@H](CC(=O)[C@H]4C[C@@H](O)CC[C@@]43C)[C@@H]2CC[C@]12O[C@@H]1C[C@H](C)CN[C@H]1[C@H]2C` the Activity (H9c2) was 72%, the Activity (RAW264.7) was 66% and the CC50 (NCI-H460) was 17 µM. For the same compound, the CC50 (A549) was 9.6 µM.
With `C[C@@H]1CC[C@H]2[C@@H](C)[C@H]3CC[C@@H]4[C@@H](C[C@H]5[C@H]4CC(=O)[C@H]4C[C@@H](O[C@@H]6O[C@H](CO)[C@@H](O)[C@H](O)[C@H]6O)CC[C@@]45C)[C@@H]3CN2C1` the Activity (H9c2) was 24%, the Activity (RAW264.7) was 6.1% and the CC50 (NCI-H460) was 54 µM. The CC50 (A549) was 39 µM.
For `C[C@@H]1CC[C@H]2[C@H](C)c3ccc4c(c3CN2C1)C[C@H]1[C@H]4C[C@H](O)[C@H]2C[C@@H](O)CC[C@@]21C`, the Activity (H9c2) was 58%, the Activity (RAW264.7) was 45% and the CC50 (NCI-H460) was 65 µM. It also gave a CC50 (A549) of 52 µM.
In the case of `CC1=C2C[C@H]3[C@@H](CC(=O)[C@H]4C[C@H](O)CC[C@@]43C)[C@@H]2CC[C@]12O[C@@H]1C[C@H](C)CN[C@H]1[C@H]2C`, the Activity (H9c2) is reported as 53%, the Activity (RAW264.7) is reported as 73% and the CC50 (NCI-H460) is reported as 29 µM. For the same compound, the CC50 (A549) was 15 µM.
`C[C@H]1CC[C@@H]2[C@H](C)[C@@H]3CC[C@@H]4[C@@H](C[C@H]5[C@H]4CC(=O)[C@H]4C[C@@H](O)CC[C@@]45C)[C@@H]3CN2C1` showed an Activity (H9c2) of 5.4%, an Activity (RAW264.7) of 62% and a CC50 (NCI-H460) of 25 µM. It also gave a CC50 (A549) of 6.8 µM.
In the case of `C[C@@H]1CC[C@H]2[C@H](C)[C@H]3CC[C@@H]4[C@@H](C[C@H]5[C@H]4CC(=O)[C@H]4C[C@@H](O)CC[C@@]45C)[C@H]3CN2C1`, the Activity (H9c2) is reported as 24%, the Activity (RAW264.7) is reported as 44% and the CC50 (NCI-H460) is reported as 54 µM. The CC50 (A549) was 43 µM.
`C[C@@H]1CC[C@H]2[C@H](C)[C@H]3CC[C@@H]4[C@@H](C[C@H]5[C@H]4CC(=O)[C@H]4C[C@@H](O)CC[C@@]45C)[C@@H]3C[N+]2([O-])C1` (stereo not given in full) gave an Activity (H9c2) of 29%, an Activity (RAW264.7) of 0.9% and a CC50 (NCI-H460) of 37 µM. The CC50 (A549) was 21 µM.
Work on `C[C@H]1CC[C@@H]2[C@H](C)[C@@H]3CC[C@@H]4[C@@H](C[C@H]5[C@H]4C[C@@H](O)[C@H]4C[C@@H](O)CC[C@@]45C)[C@@H]3CN2C1` yielded an Activity (H9c2) of 33%, an Activity (RAW264.7) of 27% and a CC50 (NCI-H460) of 12 µM. The CC50 (A549) was 10 µM.
